Assay results taken from ChEMBL document CHEMBL3046866, “Microwave-assisted synthesis and evaluation of anti-inflammatory activity of new series of N-substituted 2-butyl-5-chloro-3H-imidazole-4-carbaldehyde derivatives” (2009).

System: Rattus norvegicus
Assay: Anti-inflammatory activity in Rattus norvegicus albino (rat) assessed as inhibition of carrageenan-induced paw edema at 100 mg/kg, po administered 1 to 3 hr prior challenge
Format: functional

First: CCCCc1nc(Cl)c(C=O)n1CC(=O)c1ccc(Cl)cc1
Second: CCCCc1nc(Cl)c(C=O)n1CC(=O)c1ccccc1
The inhibition in vivo at 100 mg/kg of the first is higher: 28% for the first, 26% for the second.

Going from `CCCCc1nc(Cl)c(C=O)n1Cc1cc2c(cc1C)OCO2` to `CC(C)Cc1ccc(C(C)C(=O)O)cc1` (centres undefined) [IBUPROFEN], the inhibition in vivo at 100 mg/kg rises from 26% to 49%.
